Source: patent US8796296B2, “Aminopyrimidine derivatives as LRRK2 modulators” (Genentech, Inc., priority 2011, dated 2014)
pKi: −log10 of the molar value.

The compounds below were run against LRRK2 (Homo sapiens (Human), UniProt Q5S007, G2019S) (assay: In Vitro LRRK2 LabChip Assay (LRRK2 Ki)).
Format: biochemical
Description: In Vitro LRRK2 LabChip Assay
This assay was used to determine a compound's potency in inhibiting activity of LRRK2 by determining, Kiapp, IC50, or percent inhibition values. In a polypropylene plate, LRRK2, fluorescently-labeled peptide substrate, ATP and test compound were incubated together. Using a LabChip 3000 (Caliper Life Sciences), after the reaction the substrate was separated by capillary electrophoresis into two populations: phosphorylated and unphosphorylated. The relative amounts of each were quantitated by fluorescence intensity. LRRK2 Ki was determined according to the equation: Y=V0*(1−((x+Ki*(1+S/Km)+Et)/(2*Et)−(((x+Ki*(1+S/Km)+Et)^2−(4*Et*x))^0.5)/(2*Et))). Ki values in Table 4 and elsewhere herein are shown in μM.
Assay conditions and materials used were as follows:
LRRK2 Wild type in 5 mM MgCl2: 15 nM (Invitrogen lot #500607F)
Kinase reaction time: 2 hours
Wild type in 5 mM MgCl2: 80 μM
Kinase: LRRK2 G2019S (Invitrogen cat #PV4882). • LRRK2 Wild type (Invitrogen cat #PV4874).
Substrate: 5FAM-GAGRLGRDKYKTLRQIRQ-CONH2
Complete Reaction Buffer: H2O/25 mM Tris, pH 8.0/5 mM MgCl2/2 mM DTT/0.01% Triton X-100.
For serial dilutions, 34.6 μl DMSO was added to columns 3-24. For the assay controls, 37.5 μl DMSO was added to columns 1 and 2 of rows A and P. a,d and 50 μl 25 μM G-028831 (Staurosporine) was added to columns 1 and 2, row B. For the samples: to start at 100 μM, 37.5 μl DMSO was to columns 1 and 2, then 12.5 μl 10 mM compound; to start at 10 μM, 78 μl DMSO was added to columns 1 & 2, then 2 μl 10 mM compound; and to start at 1 μM, 25 μM compound (2 μl 10 mM cmpd+798 μl DMSO) was added to empty columns 1 and 2. A Precision instrument was used to perform 1:3.16 serial dilutions (“PLK_BM_serial_halflog”).
ATP was diluted to 282.1 μM in Complete Kinase Buffer (final concentration was 130 μM).
In Complete Reaction Buffer, substrate was diluted to 4 μM. Equal volumes of Complete Reaction Buffer and 4 μM substrate were combined to obtain the blank. Equal volumes of Complete Reaction Buffer and 4 μM substrate were combined and to the combined solution was added 2× final LRRK2 concentration.
To a 50 μl polypropylene plate, 5 μl/well buffer/substrate was added by hand to Blank wells. A Biomek FX was used to start the kinase reaction (“PLK SAR 23 ATP”). The following were added to the appropriate wells:
The plate was incubated for 2 hours in the dark. Biomek FX was used to stop the kinase reaction (“PLK Stop”), and 10 μl/well Stop solution was added to the Assay Plate.
Results were read on the LabChip 3000.
The LabChip 3000 was run using the job “LRRK2 IC50” with the following job settings: […]

Chain of LRRK2 (Q5S007 whole entry G2019S): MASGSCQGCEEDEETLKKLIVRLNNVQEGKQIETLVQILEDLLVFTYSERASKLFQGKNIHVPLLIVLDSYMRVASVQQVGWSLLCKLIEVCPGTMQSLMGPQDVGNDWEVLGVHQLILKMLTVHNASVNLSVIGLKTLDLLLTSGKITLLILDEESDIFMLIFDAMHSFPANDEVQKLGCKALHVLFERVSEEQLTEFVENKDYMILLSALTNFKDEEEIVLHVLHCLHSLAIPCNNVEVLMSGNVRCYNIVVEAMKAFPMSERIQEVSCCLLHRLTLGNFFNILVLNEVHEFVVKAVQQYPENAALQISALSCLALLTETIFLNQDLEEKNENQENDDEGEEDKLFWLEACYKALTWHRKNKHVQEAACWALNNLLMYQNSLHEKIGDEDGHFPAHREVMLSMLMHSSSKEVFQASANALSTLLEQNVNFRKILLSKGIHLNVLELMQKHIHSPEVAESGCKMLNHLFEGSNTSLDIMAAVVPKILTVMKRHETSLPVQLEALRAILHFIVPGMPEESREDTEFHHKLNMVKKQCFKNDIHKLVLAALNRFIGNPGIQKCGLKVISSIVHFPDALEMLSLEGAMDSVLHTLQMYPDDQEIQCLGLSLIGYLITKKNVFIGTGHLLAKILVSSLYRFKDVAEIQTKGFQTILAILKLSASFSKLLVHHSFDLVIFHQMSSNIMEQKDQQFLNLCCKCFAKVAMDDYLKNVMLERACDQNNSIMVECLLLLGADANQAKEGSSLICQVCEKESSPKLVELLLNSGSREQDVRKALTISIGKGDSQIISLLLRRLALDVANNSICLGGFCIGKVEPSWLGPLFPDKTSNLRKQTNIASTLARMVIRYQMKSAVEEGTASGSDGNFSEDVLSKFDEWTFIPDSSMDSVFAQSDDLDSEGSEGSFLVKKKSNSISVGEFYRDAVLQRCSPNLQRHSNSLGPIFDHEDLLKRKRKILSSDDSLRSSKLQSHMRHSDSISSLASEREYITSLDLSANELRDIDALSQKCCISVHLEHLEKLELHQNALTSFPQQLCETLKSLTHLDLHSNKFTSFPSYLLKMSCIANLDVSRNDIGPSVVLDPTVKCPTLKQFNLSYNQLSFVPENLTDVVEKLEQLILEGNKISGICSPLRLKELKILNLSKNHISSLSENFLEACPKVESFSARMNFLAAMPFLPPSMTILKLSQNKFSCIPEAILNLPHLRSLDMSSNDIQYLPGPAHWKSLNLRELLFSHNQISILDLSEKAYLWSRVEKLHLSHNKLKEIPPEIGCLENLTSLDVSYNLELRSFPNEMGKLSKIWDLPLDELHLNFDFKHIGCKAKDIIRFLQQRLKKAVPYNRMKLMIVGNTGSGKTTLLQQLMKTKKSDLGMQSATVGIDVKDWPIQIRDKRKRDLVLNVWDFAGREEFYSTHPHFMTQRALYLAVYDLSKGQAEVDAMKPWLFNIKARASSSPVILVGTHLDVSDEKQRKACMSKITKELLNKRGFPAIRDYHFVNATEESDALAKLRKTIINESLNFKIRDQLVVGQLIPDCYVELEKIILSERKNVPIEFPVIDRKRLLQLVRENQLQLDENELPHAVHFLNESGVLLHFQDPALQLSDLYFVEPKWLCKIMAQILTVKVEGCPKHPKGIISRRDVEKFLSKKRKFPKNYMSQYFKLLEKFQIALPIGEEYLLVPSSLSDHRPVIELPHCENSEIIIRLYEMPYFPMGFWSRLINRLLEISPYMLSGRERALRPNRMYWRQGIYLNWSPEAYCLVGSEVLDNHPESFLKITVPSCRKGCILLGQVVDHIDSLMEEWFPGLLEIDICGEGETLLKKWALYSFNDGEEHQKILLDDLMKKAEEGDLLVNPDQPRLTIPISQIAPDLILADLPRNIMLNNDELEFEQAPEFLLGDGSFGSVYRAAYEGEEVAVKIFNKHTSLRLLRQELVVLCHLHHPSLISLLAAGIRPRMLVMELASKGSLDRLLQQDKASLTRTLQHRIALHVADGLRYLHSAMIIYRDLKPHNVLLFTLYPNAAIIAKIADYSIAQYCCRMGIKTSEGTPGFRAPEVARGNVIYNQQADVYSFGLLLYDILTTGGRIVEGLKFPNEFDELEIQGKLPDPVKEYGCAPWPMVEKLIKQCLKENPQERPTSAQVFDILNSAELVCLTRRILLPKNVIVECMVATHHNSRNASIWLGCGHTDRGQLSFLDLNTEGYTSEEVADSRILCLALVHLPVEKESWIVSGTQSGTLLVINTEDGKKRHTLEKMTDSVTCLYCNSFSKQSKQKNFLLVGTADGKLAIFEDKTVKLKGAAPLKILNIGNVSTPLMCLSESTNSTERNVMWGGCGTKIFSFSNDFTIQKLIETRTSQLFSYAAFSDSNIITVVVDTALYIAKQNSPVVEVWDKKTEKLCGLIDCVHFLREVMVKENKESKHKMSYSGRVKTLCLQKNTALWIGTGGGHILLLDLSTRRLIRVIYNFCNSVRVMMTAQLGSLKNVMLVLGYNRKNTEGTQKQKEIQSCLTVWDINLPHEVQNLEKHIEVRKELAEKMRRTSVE

Point of comparison: `CNc1nc(Nc2ccc3c(c2OC)CN(C2COC2)C3=O)ncc1C(F)(F)F` [Compound 20, 4-methoxy-5-(4-(methylamino)-5-(trifluoromethyl)pyrimidin-2-ylamino)-2-(oxetan-3-yl)isoindolin-1-one], pKi 8.05. Against it:
- CNc1nc(Nc2cc3c(cc2OC)N(C)C(=O)C(C)(C)O3)ncc1C(F)(F)F [Compound 12, 6-methoxy-2,2,4-trimethyl-7-(4-(methylamino)-5-(trifluoromethyl)pyrimidin-2-ylamino)-2H-benzo[b][1,4]oxazin-3(4H)-one] — within 0.2 log units, 8.10
- CNc1nc(Nc2cc3c(cc2Cl)c(C(=O)N2CCN(C)CC2)cn3C)ncc1C(F)(F)F [Compound 31, (5-chloro-1-methyl-6-(4-(methylamino)-5-(trifluoromethyl)pyrimidin-2-ylamino)-1H-indol-3-yl)(4-methylpiperazin-1-yl)methanone] — 0.95 log units higher, 9.00
- CCN1Cc2c(ccc(Nc3ncc(C(F)(F)F)c(NC)n3)c2OC)C1=O [Compound 18, 2-ethyl-4-methoxy-5-(4-(methylamino)-5-(trifluoromethyl)pyrimidin-2-ylamino)isoindolin-1-one] — the same, 8.05
- CNc1nc(Nc2cc3c(cc2Cl)C(=O)N(C)CCO3)ncc1C(F)(F)F [Compound 1, 7-chloro-4-methyl-8-(4-(methylamino)-5-(trifluoromethyl)pyrimidin-2-ylamino)-3,4-dihydrobenzo[f][1,4]oxazepin-5(2H)-one] — 0.47 log units higher, 8.52
